Measured values as given in patent US9757350B2, “Small molecule inhibitors of replication protein A that also act synergistically with cisplatin” (Indiana University Research and Technology Corp., priority 2010, dated 2017).
“Also recorded” adds a separate entry of the source.

Experiments:
A549 cell lines = test: Combination with ionizing radiation, A549; type: cell-based; conditions: A549, data not shown
H460 cells = test: Crystal violet cell viability assay, H460; type: cell-based
Protocol: Referring now to FIG. 11A. Gel showing effect of MCI13E on DNA-RPA binding. […] Cytotoxicity was analyzed via crystal violet analysis as described in “methods” 48 hours following MCI13E treatment. Data represent the average and standard deviation of four replicate experiments with each replicate containing triplicate determinations and the circles represent data from H460 cells and squares A549 cells. Referring now to FIG. 11C. Graph of MCI13E induced death via apoptosis in NSCLC cell lines. Cell were treated with the indicated concentrations of MCI13E for 48 hours and analyzed for the induction of apoptosis via Annexin V/PI staining Referring now to FIG. 11D. Graph of cell survival as a function of [MCI1EC]. Percent survival was calculated for each cell line using untreated cells as a control. Data presented are the average and standard deviation from four replicate experiments. Experiments were performed in non-small cell lung cancer (NSCLC) cell lines A549 (squares), an adenocarcinoma, and the large cell carcinoma H460 cell line (circles).
Cell Viability Assays—A crystal violet cell viability assay was performed to determine cytotoxicity of SMI. Lung cancer cell lines, A549 and H460, were plated in 24-well dishes at 5×10^4 total cells. Forty-eight hours after plating, the cells were treated for […] with variable concentrations of SMIs. The media was aspirated, cells washed with 500 μl of PBS/EDTA and stained for 10 minutes with crystal violet solution (50% Ethanol, 0.75% crystal violet). Stained cells were resuspended in 500 μl DMSO containing 1% SDS and absorbance was measured at 590 nm in a SpectraMax M5 plate reader (Molecular Devices, Sunnyvale, Calif.) and analyzed using SoftMax Pro 5.2. Percent viability is taken as an absorbance percentage against control untreated cells. Values plotted represent four separate plate replicates and each plate replicate contained three assay replicates per plate.

A549 cells = test: Crystal violet cell viability assay, A549; type: cell-based; conditions: 48 hours
Protocol: Referring now to FIG. 11A. Gel showing effect of MCI13E on DNA-RPA binding. […] Cytotoxicity was analyzed via crystal violet analysis as described in “methods” 48 hours following MCI13E treatment. Data represent the average and standard deviation of four replicate experiments with each replicate containing triplicate determinations and the circles represent data from H460 cells and squares A549 cells. Referring now to FIG. 11C. Graph of MCI13E induced death via apoptosis in NSCLC cell lines. Cell were treated with the indicated concentrations of MCI13E for 48 hours and analyzed for the induction of apoptosis via Annexin V/PI staining Referring now to FIG. 11D. Graph of cell survival as a function of [MCI1EC]. Percent survival was calculated for each cell line using untreated cells as a control. Data presented are the average and standard deviation from four replicate experiments. […]
Cell Viability Assays—A crystal violet cell viability assay was performed to determine cytotoxicity of SMI. […] Stained cells were resuspended in 500 μl DMSO containing 1% SDS and absorbance was measured at 590 nm in a SpectraMax M5 plate reader (Molecular Devices, Sunnyvale, Calif.) and analyzed using SoftMax Pro 5.2. Percent viability is taken as an absorbance percentage against control untreated cells. […]

[1] = molecular target: T1, full-length heterotrimeric RPA (Homo sapiens, UniProt P27694); test: EMSA in vitro DNA binding assay, full-length heterotrimeric RPA; conditions: ssDNA substrate
T1 construct: Human full-length, un-tagged heterotrimeric RPA (RPA) was purified as previously describe; made in house
T1 sequence (P27694 whole entry): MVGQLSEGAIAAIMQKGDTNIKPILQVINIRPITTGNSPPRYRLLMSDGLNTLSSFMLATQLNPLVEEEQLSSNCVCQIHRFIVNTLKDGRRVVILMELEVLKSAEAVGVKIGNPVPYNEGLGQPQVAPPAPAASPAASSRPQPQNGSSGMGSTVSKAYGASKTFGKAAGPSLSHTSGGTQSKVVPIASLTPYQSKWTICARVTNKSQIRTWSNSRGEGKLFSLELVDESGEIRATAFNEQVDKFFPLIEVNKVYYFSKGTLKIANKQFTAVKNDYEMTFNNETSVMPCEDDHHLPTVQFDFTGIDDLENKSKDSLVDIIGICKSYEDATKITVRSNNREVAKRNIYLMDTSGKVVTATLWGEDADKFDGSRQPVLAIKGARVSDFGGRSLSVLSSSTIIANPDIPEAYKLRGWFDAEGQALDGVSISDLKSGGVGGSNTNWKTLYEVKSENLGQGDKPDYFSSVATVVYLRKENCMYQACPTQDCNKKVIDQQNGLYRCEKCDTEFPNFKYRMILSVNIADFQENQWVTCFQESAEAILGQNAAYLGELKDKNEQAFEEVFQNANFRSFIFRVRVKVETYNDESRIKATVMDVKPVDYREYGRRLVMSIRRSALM
T1 sequence (P15927 whole entry partner): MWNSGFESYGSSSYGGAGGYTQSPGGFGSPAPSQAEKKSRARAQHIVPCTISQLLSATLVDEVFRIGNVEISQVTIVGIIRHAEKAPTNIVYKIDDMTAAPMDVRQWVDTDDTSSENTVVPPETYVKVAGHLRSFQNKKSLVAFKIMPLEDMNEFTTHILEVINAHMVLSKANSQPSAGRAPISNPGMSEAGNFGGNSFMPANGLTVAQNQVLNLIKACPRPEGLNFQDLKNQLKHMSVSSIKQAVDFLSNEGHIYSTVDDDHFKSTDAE
T1 sequence (P35244 whole entry partner): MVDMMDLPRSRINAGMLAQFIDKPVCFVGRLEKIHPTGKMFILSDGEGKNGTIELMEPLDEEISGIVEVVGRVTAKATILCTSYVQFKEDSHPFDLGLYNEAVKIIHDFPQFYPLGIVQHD
Protocol: RPA. Human full-length, un-tagged heterotrimeric RPA (RPA) was purified as previously describe.
RPA and DBD-A/B Binding. EMSAs were performed as previously described (22) using a 30-base purine rich ssDNA substrate (3Pc3). Briefly, reactions contained 12.5 nM 5′-[^32P]-labeled 3Pc3 ssDNA and the indicated concentrations of RPA or DBD-A/B. Protein was pre-incubated with the indicated concentration of SMI for 30 minutes at 37° C. DNA was then added and reactions incubated for an additional 5 minutes at room temperature in a final reaction volume of 40 μL. Reactions were then resolved on a 6% native polyacrylamide gel and electrophoresed at 170 volts for 1 hour. Gels were dried and quantified via phosphorimager analysis and ImageQuant software (Molecular Dynamics).

RPA DBD-A/B = molecular target: T2, RPA DBD-A/B (Homo sapiens, UniProt P27694); test: EMSA DNA binding assay, RPA DBD-A/B construct
T2 construct: made in house; host or cells: E. coli BL21(DE3)
T2 sequence (P27694 181-422 limits assumed): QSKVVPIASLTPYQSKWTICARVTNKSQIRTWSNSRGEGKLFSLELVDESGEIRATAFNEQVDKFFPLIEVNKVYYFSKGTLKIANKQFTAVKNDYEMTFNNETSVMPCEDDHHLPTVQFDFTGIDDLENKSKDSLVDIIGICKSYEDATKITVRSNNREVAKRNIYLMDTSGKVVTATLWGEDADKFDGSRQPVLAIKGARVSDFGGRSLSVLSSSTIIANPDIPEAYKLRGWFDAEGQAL
Protocol: DBD-A/B. The sequence encoding the RPA p70 DNA binding domains A and B were subcloned from the hrRPA plasmid (provided by Dr. Marc Wold, University of Iowa) into the pET15b (Novagen) vector and the protein was expressed in BL21(DE3) cells (Stratagene) as previously described. Briefly, cells were grown to an OD600 of 0.8, induced with 0.5 mM isopropyl-1-thio-β-D-galactopyranoside (IPTG) at 37° C. for 2-3 hours. Small scale DBD-A/B preparations were obtained from 1 L cultures and following induction, cells were harvested by centrifugation at 700×g for 30 minutes at 4° C. The pellets were suspended in Buffer A (20 mM Tris, pH 7.5, 10% glycerol, 500 mM NaCl, 10 mM β-mercaptoethanol (BME) and 1 μg/mL phenylmethanesulfonylfluoride (PMSF), leupeptin and pepstatin) at 1 mL/gram of cells. The cells were lysed by sonication and insoluble material sedimented at 15,000×g for 30 minutes at 4° C. The supernatant was then loaded onto a 10 mL phosphocellulose column, equilibrated with Buffer A, and the flow-through material collected. Imidazole was added to 5 mM to the flow through which was then loaded onto a 2 mL nickel-NTA-agarose column. The column was then washed with Buffer A containing 50 mM imidazole after which protein was eluted from the column using a gradient from 50-500 mM imidazole. Fractions were analyzed for protein content using Bradford and SDS-PAGE analysis in addition to assessment of DNA binding activity as determined by anisotropy. Fractions containing the DBD-A/B protein were pooled and dialyzed overnight in Buffer B (1 mM HEPES, pH 7.2, 10 mM dithiothreitol (DTT), 50 mM NaCl and 1 μg/mL PMSF, pepstatin and leupeptin) and aliquots stored at −80° C.
RPA and DBD-A/B Binding. EMSAs were performed as previously described (22) using a 30-base purine rich ssDNA substrate (3Pc3). […] Gels were dried and quantified via phosphorimager analysis and ImageQuant software (Molecular Dynamics).

EcSSB = molecular target: T3, EcSSB (Escherichia coli, UniProt P0AGE0); test: E. coli SSB DNA-binding EMSA; conditions: 0-200 μM, pre-incubated with protein
T3 construct: purchased Enzymatics, Beverly, Mass
T3 sequence (P0AGE0 2-178): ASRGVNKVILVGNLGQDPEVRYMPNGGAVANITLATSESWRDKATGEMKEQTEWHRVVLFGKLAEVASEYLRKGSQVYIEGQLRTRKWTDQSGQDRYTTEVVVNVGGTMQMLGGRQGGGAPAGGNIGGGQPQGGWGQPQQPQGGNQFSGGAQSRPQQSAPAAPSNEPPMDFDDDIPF
Protocol: In order to study the specificity of the CheSS19, and MCI13E/F compounds, their effects on two ssDNA binding proteins which use OB-folds for recognition and binding of ssDNA, E. coli SSB (6) and the Schizosaccharomyces pombe Pot1(DBD) domain (11) were studied. The EcSSB protein is a non-sequence-specific ssDNA binding protein, whereas the SpPot1(DBD) protein is a telomere-specific, ssDNA binding protein. In these experiments, protein was pre-incubated with the SMIs, as was done for the RPA experiments, prior to addition of radiolabeled ssDNA to the reactions.
Referring now to FIG. 6B. CheSS19 titration in EcSSB DNA-binding reactions. CheSS19 (0, 25, 50, 100, and 200 μM) was pre-incubated with EcSSB and binding reactions were carried out. Referring now to FIG. 6C. Titration of MCI13E and MCI13F in EcSSB DNA-binding reactions. Concentrations of MCI13E/F used were: 0, 25, 50, 100, and 200 μM. In all panels, the ‘Free’ ssDNA is indicated with an arrow and the ‘Bound’ ssDNA is indicated by brackets. All reactions were performed in the same order and manner as the RPA binding reactions. EcSSB binding was unaffected by CheSS19 and the MCI13E and MCI13F compounds […].
EMSAs were performed similarly to those for the RPA constructs, with the following exceptions. Reactions contained 25 nM of 5′-[^32P]-labeled 3Pc3 ssDNA and 3.3 nM (assuming homotetramer formation) SSB protein (Enzymatics, Beverly, Mass.). Reactions (20 μL) were carried out in 20 mM HEPES, pH 7.5, 1 mM DTT, 0.01% NP-40, 100 mM NaCl, and resolved by 6% native polyacrylamide gel electrophoresis at 25 mA for 2 hours. Gels were dried and quantified via phosphorimager analysis and ImageQuant software (Molecular Dynamics).

Structure (SMILES) | Cell death in combination with ionizing radiation (A549 cell lines) | IC50 (H460 cells; 48 hours, crystal violet) | IC50 (A549 cells) | Inhibition of full-length RPA DNA binding [1] | Inhibition of DBD-A/B DNA binding (RPA DBD-A/B) | Effect on EcSSB ssDNA binding (EcSSB) | IC50 (H460 cells; 48 hours after exposing the cells)
CC1(C)C2CCC1(C)C(OC(=O)CBr)C2 (racemic) [MCI13E, (+/−)-Isobornyl bromoacetate] | at best, an additive increase in cell death | ~5 µM | ~5 µM | inhibits RPA-DNA binding in vitro; also recorded: inhibition of the full-length heterotrimer RPA | no inhibitory activity; also recorded: completely ineffective | unaffected; also recorded: no significant inhibition | –
CC1(C)C2CCC1(C)C(OC(=O)CI)C2 (racemic) [MCI13F, (+/−)-Isobornyl iodoacetate] | at best, an additive increase in cell death | ~5 µM | ~5 µM | slightly more effective | no inhibitory activity; also recorded: completely ineffective | unaffected; also recorded: no significant inhibition | 4 µM
